Where “and” joins values, the source holds several entries; their conditions need not be identical. Identical values can stand only once. Like-named read-outs stand apart in the source and are kept apart here.
Columns and labels:
[1] = tested on: MDR strains of Gram-negative bacteria; design: method as in PMID 26824939; settings: cited from earlier work
[2] = tested on: E. aerogenes CM-64; assay: MIC (microdilution) against E. aerogenes CM-64 overexpressing AcrAB-TolC
[3] = tested on: Salmonella typhimurium TA100; type: cell-based; settings: for Mean of Revertants: 72 h; for Fold Increase Over Baseline: mutagenic if ≥ 2; for Binomial B-Value: ≤ 0.01 may be cytotoxic effect
Experimental: The mutagenicity was evaluated using Ames microplate fluctuation protocol (MPF) performed with Salmonella typhimurium TA100 strain, which is able to detect base pair substitutions. Calculation of medium control baseline (MCB) was performed basing on mean number of revertants in standard medium control in addition with one standard deviation. According to the manufacturer’s protocol, the mutagen alert is determined as 2-fold of medium control baseline (2 x MCB), which in this study was calculated as 24 revertants.
Ames microplate fluctuation protocol (MPF) assay was obtained from Xenometrix AG (Allschwil, Switzerland). The occurrence of mutagen-induced or spontaneous reversion events to histidine prototrophy was determined as a growth of S. typhimurium TA100 in the indicator medium without histidine after 72 h incubation at 37 °C temperature. NQNO (0.5 µM) was used as a positive control. Compound 9 was tested in triplicate at the final concentrations 1 and 10 µM. The revertants’ growth induced the colour change of medium which was analysed next colourimetrically with a microplate reader (EnSpire, PerkinElmer, Waltham, MA, USA) at 420 nm.

[4] = tested on: E. aerogenes Ea-294, Ea-298; assay: MIC (microdilution) against E. aerogenes strains devoid of AcrAB / TolC
[5] = tested on: MRSA HEMSA 5; assay: Intrinsic antibacterial activity (MIC, microdilution) against MRSA HEMSA 5; type: cell-based, S. aureus
Experimental: (§1) Initially, 12 arylideneimidazolone derivatives were evaluated in vitro for their intrinsic antibacterial effect against two strains of S. aureus: the reference strain S. aureus ATCC 25923 and extremely-drug resistant (XDR) MRSA HEMSA 5 clinical isolate. This step of the study was necessary for: (i) elucidation whether molecules tested are devoid of antistaphylococcal activity and thus cannot become antimicrobial agents by themselves; and (ii) determination of the concentrations of compounds suitable for the further assay on their antibiotic adjuvant potency. In addition, the antistaphylococcal efficacy of oxacillin, which was paired with compounds tested, in the following assays was also assessed (Table 3).

[6] = tested on: S. aureus ATCC 25923; assay: Intrinsic antibacterial activity (MIC, microdilution) against reference S. aureus strain; type: cell-based; settings: S. aureus ATCC 25923, compound alone, MH II broth
Experimental: as §1

[7] = tested on: E. aerogenes Ea-289; assay: MIC (microdilution) against E. aerogenes Ea-289 overexpressing AcrAB-TolC, porin-deficient
[8] = PAMPA membrane permeability (Pre-coated PAMPA Plate System Gentest); type: in vitro ADME; settings: 200 µM in PBS pH 7.4, room temperature, read-out: Pe ± SD
[9] = tested on: HepG2 cells; assay: Hepatotoxicity, MTS viability assay; type: cell-based; settings: 72 h; for HepG2 cells' viability: MTS
Experimental: Determination of potential hepatotoxicity was performed with hepatoma HepG2 cells by standard colorimetric MTS procedure. Compound 9 was diluted into the cell culture media in the following concentrations: 0.1, 1, 10 and 100 μM, added to the cells and incubated for 72 h at 37 °C in the presence of 5% CO2. The cytostatic drug doxorubicin (DX) was used at 1 µM, as the reference. […] However, in comparison to the result obtained for the reference DX the hepatotoxicity potential of tested compound is moderate, as its decreased cells’ viability to ~74% of control at 10 µM, whereas DX to ~15% of control at 1 µM (Figure 10).
The HepG2 cells were seeded in 96-well plates at a concentration of 1 × 10^4 cells/well and incubated for 24 h at 37 °C in 5% CO2 atmosphere to reach 50% of confluence. Compound 9 was diluted into fresh growth medium and added to the cells at the final concentrations 0.1 μM–100 μM. The positive controls DX and CCCP were added at 1 μM and 10 μM, respectively, and the cells were incubated for 72 h. The MTS reagent (CellTiter 96® AQueous One Solution Cell Proliferation Assay, Promega, Madison, WI, USA) was added next to the each well and incubated for 4 h. The absorbance was measured next using a microplate reader (EnSpire, PerkinElmer, Waltham, MA USA) at 490 nm to determine cells’ viability.

[10] = tested on: AcrAB-TolC efflux pump in E. aerogenes Ea-289; assay: Real-time efflux (RTE) assay with 1,2'-dNA; settings: compound 100 µM; Ea-289 strain
[11] = tested on: MRSA HEMSA 5; assay: MIC reduction assay: influence on oxacillin susceptibility in MRSA; type: cell-based, S. aureus
Experimental: The lack of a direct antibacterial activity of arylideneimidazolone derivatives tested allowed analyzing their anti-resistance potency in combination with the β-lactam antibiotic, oxacillin. […] The potential of compounds to become antibiotic adjuvants was evaluated by comparing the drug effectiveness in the presence and absence of compounds tested, thereby, by determining activity gain parameter A (Table 5). […] Slightly lower adjuvant-like activity was determined for the imidazolone derivatives 7 and 10 (A = 8–16). The efficacy of the remaining compounds was slightly less marked, however, also significant. Although compounds tested improved noticeably the antibacterial activity of oxacillin against MRSA clinical isolate, none of them restored the activity of the antibiotic (MIC < 2 µg/mL) against this highly resistant strain.

[12] = tested on: S. aureus ATCC 25923; assay: MIC reduction assay: influence on oxacillin susceptibility in reference strain; type: cell-based

## O=C1NC(N2CCNCC2)=N/C1=C\c1ccc(-c2ccccc2)cc1 [Compound 5]
[1]; MDR Gram-negative bacteria
  reduction of rifampin MIC: 32 fold
[1]; oxacillin, chloramphenicol, linezolid and clarytromycin
  reduction of antibiotics MIC values: 8 fold

## CN1CCN(CCCN2C(=O)/C(=C/c3ccc4ccccc4c3)N=C2N)CC1.Cl [Compound 9, (Z)-2-Amino-3-(3-(4-methylpiperazin-1-yl)propyl)-5-(naphthalen-2-ylmethylene)-3H-imidazol-4(5H)-one hydrochloride]
[2]; Klebsiella aerogenes, CM64
  MIC: > 2000 µM
[3]; 1 µM
  Mean of Revertants: 9.33
  Fold Increase Over Baseline: 0.78
  Binomial B-Value: 0.6331
[3]; 10 µM
  Mean of Revertants: 5.33
  Fold Increase Over Baseline: 0.44
  Binomial B-Value: 0.0093
[3]; 1 and 10 µM, mutagen alert 24 revertants
  maximum revertants occurred: ≤ 11 revertants
[4]; Klebsiella aerogenes
  MIC: 1000 µM
other
  melting point: 215 to 217 °C
[5]; Staphylococcus aureus, MRSA HEMSA 5, compound alone, MH II broth, read-out: MIC Value
  MIC: 500 µM
[6]; Staphylococcus aureus, ATCC25923, read-out: MIC Value
  MIC: 500 µM
[7]; Klebsiella aerogenes, EA289
  MIC: > 2000 µM
[8]
  Papp at 5 h, 200 µM: 0.72 ± 0.27 ×10⁻⁶ cm/s
[9]; 10 µM
  HepG2 cells' viability: ~ 74 % of control
[9]; 10 and 100 µM, p < 0.001 vs control
  effect on HepG2 cells viability: statistically significant decrease
[10]
  Inhibitory efficiency (IE) of 1,2'-dNA efflux: 80%

## COc1cccc2c1C(=O)c1c(O)c3c(c(O)c1C2=O)C[C@@](O)(C(=O)CO)C[C@@H]3O[C@H]1C[C@H](N)[C@H](O)[C@H](C)O1 [DX, doxorubicin, reference compound]
[9]; 1 µM
  HepG2 cells' viability: ~ 15 % of control

## (Z)-5-((9H-Fluoren-2-yl)methylene)-2-amino-3-(2-(4-methylpiperazin-1-yl)ethyl)-3H-imidazol-4(5H)-one hydrochloride [Compound 13]
[11]
  Activity Gain [A]: 4–8
  Range of Reduction (oxacillin MIC): from 512 to 64-128
[2]; CM-64
  MIC: 500 µM
[4]; Ea-294, Ea-298
  MIC: 250 µM
[12]
  Activity Gain [A]: 1
  Range of Reduction (oxacillin MIC): no effect
[5]; MRSA HEMSA 5, compound alone, MH II broth
  MIC Value: 125 µM
[5]; text summary for both strains: ATCC 25923 and MRSA HEMSA 5
  MIC: 0.0625–0.125 mM and 28.25–56.5 µg/mL
[6]
  MIC Value: 62.5 to 125 µM
[7]; Ea-289
  MIC: 500 µM

From publication PMC6384991, “5-Arylideneimidazolones with Amine at Position 3 as Potential Antibiotic Adjuvants against Multidrug Resistant Bacteria” (Molecules, 2019)
